Values joined by “and” are separate entries in the source; they are usually repeats but may differ in a detail not shown here. Equal values may be shown once.

One data set concerns xanthine oxidase (XOD). In kind it is in vivo, ICR mice. The following applies: mice of the high uric acid model, after interference.
The test system of data set [1] is high uric acid mice model (potassium oxonate and hypoxanthine). As to the method: (§1) Tested animals are 5-week old male ICR mice purchased from Shanghai JSJ Laboratory Animal Co., Ltd., SPF grade. All mice were grown under the conditions of a temperature of 24±2° C., alternating 12 h light and 12 h dark, and free feeding and drinking for adaptation. After 1 week of adaptation, mice were randomly grouped into […], 7 mice in one group. The groups are normal control group, model group, positive control group, low dose Lactobacillus paracasei LT12 group, and high dose Lactobacillus paracasei LT12 group (see Table 3). Modeling period is two weeks and interfering period is four weeks. During modeling, except for the normal control group, the other groups were subjected to gavage with 300 mg/kg potassium oxonate and hypoxanthine (formulated into a suspension using 0.5% CMC-Na solution) every day for high uric acid modeling. During interference, except for the normal control group, the other groups were subjected to gavage with 300 mg/kg potassium oxonate and hypoxanthine every day for continued modeling. 2 h after modeling, each group of mice were administered at the dose according to FIG. 2. The drug samples for each group were dissolved in saline. The same amount of saline was administered to normal groups and model group.
(§2) During modeling, blood was collected through cutting the tail to detect changes in serum uric acid every week. At the last two days of the experiment, fresh feces of mice of each group were collected and kept in −20° C. refrigerator. Before sacrifice, mice were fasted for 12 h. The last modeling was conducted. Blood was collected 1 h after modeling followed by sacrifice and dissection. Mice whole blood is placed at 4° C. for 2 h followed by centrifugation at 3000 rpm for 10 min. The serum was aliquoted and stored in −80° C. refrigerator. Mice liver, kidneys, and colon were collected. One of the kidneys was preserved in 4% […] for pathological analysis. Other tissue samples were immediately freezed in liquid nitrogen and stored at −80 ° C. for preservation.
(§3) The levels of uric acid, creatinine, blood urea nitrogen, lactate dehydrogenase, xanthine oxidase (XOD), oxidative stress levels (glutathione (GSH), superoxide dismutase (SOD), glutathione peroxidase (GSH-Px), malondialdehyde (MDA), inflammatory factors (TNF-alpha, IL-1β, and IL-6)) were detected according to the detection method described in the specification in the kits. Pathological analysis on renal tissue were completed in corporation with Wuhan Servicebio Technology Co., Ltd., China. Immunoblotting analysis on renal uric acid transporter proteins were conducted according to internal methods in labs.

Data set [2] shares this test system. The class given is in vivo, ICR mice. On the set-up: inflammatory cell infiltration (pathological score) / renal tubules hydropic degeneration (pathological score) / renal tubules atrophy (pathological score) / renal tubules dilation (pathological score) / connective tissue proliferation (pathological score) / Protein cast (pathological score): scale not given here. As to the method:
as §1, §2, §3

The mark [3] stands for this setting: after interference for four weeks, gavage, compared with model and normal group.
The mark [4] stands for this setting: Positive group, score per mouse 3-1 to 3-7.

Method for xanthine oxidase (XOD): Tested animals are 5-week old male ICR mice purchased from Shanghai JSJ Laboratory Animal Co., Ltd., SPF grade. All mice were grown under the conditions of a temperature of 24±2° C., alternating 12 h light and 12 h dark, and free feeding and drinking for adaptation. After 1 week of adaptation, mice were randomly grouped into 10 groups, 7 mice in one group. […] Modeling period is two weeks and interfering period is four weeks. During modeling, except for the normal control group, the other groups were subjected to gavage with 300 mg/kg potassium oxonate and hypoxanthine (formulated into a suspension using 0.5% CMC-Na solution) every day for high uric acid modeling. During interference, except for the normal control group, the other groups were subjected to gavage with 300 mg/kg potassium oxonate and hypoxanthine every day for continued modeling. 2 h after modeling, each group of mice were administered at the dose according to FIG. 2. The drug samples for each group were dissolved in saline. […]
The levels of uric acid, creatinine, blood urea nitrogen, lactate dehydrogenase, xanthine oxidase (XOD), oxidative stress levels (glutathione (GSH), superoxide dismutase (SOD), glutathione peroxidase (GSH-Px), malondialdehyde (MDA), inflammatory factors (TNF-alpha, IL-1β, and IL-6)) were detected according to the detection method described in the specification in the kits. […]

With `Oc1ncnc2[nH]ncc12` [allopurinol], in the data set with xanthine oxidase (XOD), the “activities of xanthine oxidase in serum and liver” value is “the lowest”. Further, in data set [1] (setting [3]), the “blood urea nitrogen levels” value is listed as “increased”, the serum creatinine levels entry was “increased” and the “serum uric acid levels” value is listed as “reduced to the levels of the normal group”. Besides, the renal toxicity result in data set [1] (mouse, in vivo) is reported as “strong renal toxicity was generated”. Besides, in data set [2] (setting [4]), the “Protein cast (pathological score)” value was 1 and 0 (6×); the “connective tissue proliferation (pathological score)” value is 0 (5×) and 1 (2×); the “inflammatory cell infiltration (pathological score)” value was 0 (2×) and 1 (5×); the “renal tubules atrophy (pathological score)” value is 0 (5×) and 1 (2×). Further, in data set [2] (setting [4]), the “renal tubules dilation (pathological score)” value was 0 (3×) and 1 (4×); the “renal tubules hydropic degeneration (pathological score)” value is 1 (4×) and 0 and 2 (2×). The “Total score (pathological scores of mice kidneys)” value in data set [2] (Positive group, sum over 7 mice) is on record as 22. Besides, in data set [2] (pathological analysis, high uric acid mice), the “damages in renal tissues” value is given as “severe renal damages were caused”.

(Values after patent US20240165173A1, “METHOD OF REDUCING URIC ACID BY USING LACTOBACILLUS PARACASEI LT12” (priority 2022, published 2024).)
